The subject of assay [1] is phosp-KAP1 in MCF-7 cells. The assay can be described thus: phosp-KAP1 MCF-7 cellular potency assay (Assay f). The settings on record: Homo sapiens. It is filed as cell-based. The protocol:
Assay f): phosp-KAP1 MCF-7 Cellular Potency
MCF-7 cells were seeded to a 384-well cell-culture plate, 25 μl/well which were incubated at 37° C. and 5% CO2 for 24 hr. Test compounds were added to the 384-well plates. Etoposide at final concentration of 100 μM was then added to each well except Vehicle control wells, which were incubated at 37° C. and 5% CO2 for 1 hour. After medium removal, cells were fixed by the addition of 25 μl/well of 8% paraformaldehyde in PBSA and incubated for 20 minutes at room temperature. After the plates were rinsed 3 times with PBSA, 50 ul permeabilization buffer (0.1% Triton X-100 in PBS) was added and the plates were incubated for 20 minutes at room temperature. After the plates were rinsed with PBSA, block the cells by adding 50 μl of Odyssey Blocking Buffer in 384-well plate and then incubate for 1.5 hours at room temperature. Remove blocking buffer by Plate washer (BioTek ELx405 select CW). […] The plates were rinsed 5 times with PBST (0.1% Tween-20 in PBS).
• 1) Fluorescence intensity (FI) was detected for each well. • 2) % inhibition is calculated as follow:
[formula] • FIpositive: The average FI for the positive controls across the plate. • FIvehicle: The average FI for negative controls across the plate. • 3) Calculate IC50 and Plot effect-dose curve of compounds: • Calculate IC50 by fitting % inhibition values and log of compound concentrations to nonlinear regression (dose response−variable slope) with Graphpad prism 6.0.
Y=Bottom+(Top−Bottom)/(1+10^((Log IC50−X)*HillSlope)) • X: log of compounds concentration; Y: % inhibition

For a further assay, the target named is ATM (Homo sapiens (Human), UniProt Q13315). In words: biochemical. Particulars: read-out: ATM IC50. The assay is classed as biochemical. The text has this:
Assay a): ATM Biochemical Potency
Data was collected by Caliper.

For another assay, the system named is FaDu xenograft. The assay can be described thus: FaDu xenograft model, radiation combination (Assay i). The settings on record: for Inhibition (% TGI) Combo: combo with IR; for tumor response in FaDu xenograft efficacy study: oral compound in combination with IR (2 Gy per day, 5 days per cycle). The assay is classed as in vivo, mouse. The protocol:
Assay i): FaDu Xenograft Model
Cell culture: FaDu tumor cells were cultured in an EMEM medium containing inactivated 10% fetal bovine serum, 100 U/ml penicillin and 100 μg/ml streptomycin in a 37° C., 5% CO2 incubator.
Inoculation and grouping: Xenografts were established by implantation of 100 μl of Fadu tumor cell suspension (5×10^6 cells/mouse) subcutaneously into the right flank of female immune-compromised BALB/c nude mice at least 6 weeks of age. Tumours were measured in two dimensions with calipers and the tumour volume was calculated using the following formula: tumor volume=(length×width^2)×0.5. When the average tumor volume reached 100 to 150 mm^3, tumour-bearing mice were randomized into treatment groups.
Treatment and tumor assessment: Animals received 3 to 6 cycles of treatment with compounds combined with radiation therapy. Each cycle included 5 consecutive treatment day plus 2 days' rest. Ionizing radiation was administered using a fractionated schedule of 2 Gy per day administered over 5 consecutive days (total radiation dose=10 Gy/cycle). Compound was given orally 10 minutes before irradiation. The tumour volume and body weight of the mice were measured twice weekly.
Statistical Analysis: The One-Way ANOVA test was used for statistical analysis of tumor volume between groups, and p<0.05 was considered as a significant difference.

For assay [2], the target named is ATM (phospho-ATM Ser1981) in SN38 treated HT-29 cells (Homo sapiens (Human), UniProt Q13315). In words: cell-based. The protocol:
Assay g): ATM SN-38 HT-29 Cellular Potency
SN38 causes single strand DNA breaks (SSBs) which are converted to double strand breaks (DSBs) during replication. ATM plays role of repairing DSBs. Inhibition of ATM was evaluated in SN38 treated HT-29 cells (ATCC, Cat #HTB-38) by high-Content Imaging System
The graphical views were then generated using Prism 7.0 (Graphpad).

The next assay addresses PI3Kα (p110α/p85a) (Homo sapiens (Human), UniProt P42336). In words: PI3K biochemical potency assay (Assay c), PI3Kα.
Another assay deals with PIK3Cδ (Homo sapiens (Human), UniProt O00329). In words: PI3K biochemical potency assay (Assay c), PIK3Cδ.
The target of the next assay is ATR (Homo sapiens (Human), UniProt Q13535). The assay can be described thus: ATR biochemical potency assay (Assay b). The protocol: Assay b): ATR Biochemical Potency
ATR, sequence (Q13535 whole entry, looked up): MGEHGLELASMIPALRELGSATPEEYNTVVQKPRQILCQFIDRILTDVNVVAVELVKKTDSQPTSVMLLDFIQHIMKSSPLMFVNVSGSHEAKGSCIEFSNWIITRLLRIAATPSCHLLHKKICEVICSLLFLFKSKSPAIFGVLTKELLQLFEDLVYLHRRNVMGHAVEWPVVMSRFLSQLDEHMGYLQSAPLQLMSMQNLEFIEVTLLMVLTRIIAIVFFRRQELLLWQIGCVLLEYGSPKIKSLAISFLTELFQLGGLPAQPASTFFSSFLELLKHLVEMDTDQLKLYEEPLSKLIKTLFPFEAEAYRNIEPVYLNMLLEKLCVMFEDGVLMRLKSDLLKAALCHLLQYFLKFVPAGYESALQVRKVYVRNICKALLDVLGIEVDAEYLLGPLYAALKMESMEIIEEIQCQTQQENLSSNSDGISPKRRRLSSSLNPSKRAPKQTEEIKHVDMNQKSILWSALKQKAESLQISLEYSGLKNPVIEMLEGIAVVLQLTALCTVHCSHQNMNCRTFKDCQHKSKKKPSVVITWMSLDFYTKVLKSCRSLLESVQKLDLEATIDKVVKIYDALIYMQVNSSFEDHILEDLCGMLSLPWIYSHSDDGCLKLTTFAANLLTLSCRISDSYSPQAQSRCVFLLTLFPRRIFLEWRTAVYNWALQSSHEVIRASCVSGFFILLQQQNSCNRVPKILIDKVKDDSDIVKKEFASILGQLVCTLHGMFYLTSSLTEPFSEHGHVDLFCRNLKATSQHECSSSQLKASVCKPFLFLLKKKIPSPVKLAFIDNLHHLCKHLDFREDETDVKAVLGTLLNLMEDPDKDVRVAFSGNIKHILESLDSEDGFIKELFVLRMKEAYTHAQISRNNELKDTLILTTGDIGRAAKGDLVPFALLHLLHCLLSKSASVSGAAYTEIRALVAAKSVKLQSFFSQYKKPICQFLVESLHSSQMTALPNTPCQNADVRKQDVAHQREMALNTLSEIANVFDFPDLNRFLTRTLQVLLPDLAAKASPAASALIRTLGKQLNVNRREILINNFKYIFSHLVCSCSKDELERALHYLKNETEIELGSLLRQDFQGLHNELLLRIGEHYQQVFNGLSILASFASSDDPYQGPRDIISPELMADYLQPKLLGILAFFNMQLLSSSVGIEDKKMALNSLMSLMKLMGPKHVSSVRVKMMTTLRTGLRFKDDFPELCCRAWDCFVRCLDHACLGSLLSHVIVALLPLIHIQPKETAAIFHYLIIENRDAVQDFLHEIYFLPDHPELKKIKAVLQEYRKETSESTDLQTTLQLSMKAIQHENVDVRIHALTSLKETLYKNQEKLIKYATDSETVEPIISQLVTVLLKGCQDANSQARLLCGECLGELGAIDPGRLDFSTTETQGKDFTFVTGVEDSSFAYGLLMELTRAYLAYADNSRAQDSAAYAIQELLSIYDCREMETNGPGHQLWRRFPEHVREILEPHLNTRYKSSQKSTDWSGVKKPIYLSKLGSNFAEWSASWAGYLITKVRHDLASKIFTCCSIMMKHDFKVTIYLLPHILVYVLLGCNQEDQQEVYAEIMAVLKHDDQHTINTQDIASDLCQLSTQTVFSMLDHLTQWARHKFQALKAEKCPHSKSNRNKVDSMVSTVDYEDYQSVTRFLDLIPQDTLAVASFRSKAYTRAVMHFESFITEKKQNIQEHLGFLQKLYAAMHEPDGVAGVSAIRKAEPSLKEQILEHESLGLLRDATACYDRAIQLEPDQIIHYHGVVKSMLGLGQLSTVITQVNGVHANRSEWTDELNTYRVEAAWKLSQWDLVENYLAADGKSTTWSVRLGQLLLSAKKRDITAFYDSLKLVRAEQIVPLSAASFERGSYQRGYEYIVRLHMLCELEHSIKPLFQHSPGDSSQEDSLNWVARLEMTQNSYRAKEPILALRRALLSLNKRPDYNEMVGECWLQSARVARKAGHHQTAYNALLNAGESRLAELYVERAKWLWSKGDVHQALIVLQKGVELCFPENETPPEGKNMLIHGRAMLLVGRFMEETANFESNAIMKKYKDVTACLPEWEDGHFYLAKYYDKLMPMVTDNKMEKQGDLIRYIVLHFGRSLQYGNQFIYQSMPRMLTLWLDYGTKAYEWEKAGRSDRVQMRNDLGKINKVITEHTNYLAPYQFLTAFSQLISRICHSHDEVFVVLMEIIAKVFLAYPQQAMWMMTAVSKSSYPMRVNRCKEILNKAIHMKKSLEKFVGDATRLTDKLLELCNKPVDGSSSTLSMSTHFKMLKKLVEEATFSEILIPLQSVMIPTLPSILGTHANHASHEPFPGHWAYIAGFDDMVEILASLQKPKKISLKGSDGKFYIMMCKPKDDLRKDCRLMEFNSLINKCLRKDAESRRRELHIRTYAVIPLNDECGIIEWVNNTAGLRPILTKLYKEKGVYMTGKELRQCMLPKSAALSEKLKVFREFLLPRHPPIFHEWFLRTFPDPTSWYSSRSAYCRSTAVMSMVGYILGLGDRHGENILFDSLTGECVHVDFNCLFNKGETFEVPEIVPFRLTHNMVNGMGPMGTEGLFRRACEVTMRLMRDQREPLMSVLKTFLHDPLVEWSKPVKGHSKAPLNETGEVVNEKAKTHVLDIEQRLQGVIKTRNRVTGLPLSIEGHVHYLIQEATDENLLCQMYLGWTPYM
ATR, sequence (Q8WXE1 whole entry partner, looked up): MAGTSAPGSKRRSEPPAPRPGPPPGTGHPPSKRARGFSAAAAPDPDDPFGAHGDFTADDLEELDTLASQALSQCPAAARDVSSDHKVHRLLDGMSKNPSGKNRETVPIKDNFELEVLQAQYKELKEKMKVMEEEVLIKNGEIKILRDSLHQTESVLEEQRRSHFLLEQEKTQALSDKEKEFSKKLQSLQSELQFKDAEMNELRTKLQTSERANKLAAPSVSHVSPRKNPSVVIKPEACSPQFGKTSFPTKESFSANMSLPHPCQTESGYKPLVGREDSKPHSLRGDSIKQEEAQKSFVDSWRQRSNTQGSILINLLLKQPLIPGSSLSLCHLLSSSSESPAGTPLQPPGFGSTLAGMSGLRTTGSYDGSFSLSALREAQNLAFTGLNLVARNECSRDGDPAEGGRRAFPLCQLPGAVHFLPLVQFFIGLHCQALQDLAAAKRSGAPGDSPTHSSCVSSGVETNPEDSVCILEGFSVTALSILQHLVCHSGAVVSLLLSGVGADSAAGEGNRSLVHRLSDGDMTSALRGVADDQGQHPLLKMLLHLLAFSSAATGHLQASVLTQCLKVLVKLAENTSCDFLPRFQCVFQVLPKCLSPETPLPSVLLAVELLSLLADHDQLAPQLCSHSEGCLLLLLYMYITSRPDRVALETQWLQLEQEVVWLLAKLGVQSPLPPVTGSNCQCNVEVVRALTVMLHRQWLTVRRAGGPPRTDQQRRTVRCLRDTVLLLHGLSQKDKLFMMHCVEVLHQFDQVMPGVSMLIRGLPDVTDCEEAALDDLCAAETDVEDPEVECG
The plate was incubated at room temperature for 10 minutes. 2× peptide solutions were prepared with FAM-labeled peptide and ATP in the 1× kinase base buffer. […] 40 μl of stop buffer was added to stop reaction. Data were collected by Caliper.

The target of a further assay is PIK3Cγ (pp110γ) (Homo sapiens (Human), UniProt P48736). The assay can be described thus: PI3K biochemical potency assay (Assay c), PIK3Cγ.
PIK3Cγ (pp110γ), sequence (P48736 whole entry): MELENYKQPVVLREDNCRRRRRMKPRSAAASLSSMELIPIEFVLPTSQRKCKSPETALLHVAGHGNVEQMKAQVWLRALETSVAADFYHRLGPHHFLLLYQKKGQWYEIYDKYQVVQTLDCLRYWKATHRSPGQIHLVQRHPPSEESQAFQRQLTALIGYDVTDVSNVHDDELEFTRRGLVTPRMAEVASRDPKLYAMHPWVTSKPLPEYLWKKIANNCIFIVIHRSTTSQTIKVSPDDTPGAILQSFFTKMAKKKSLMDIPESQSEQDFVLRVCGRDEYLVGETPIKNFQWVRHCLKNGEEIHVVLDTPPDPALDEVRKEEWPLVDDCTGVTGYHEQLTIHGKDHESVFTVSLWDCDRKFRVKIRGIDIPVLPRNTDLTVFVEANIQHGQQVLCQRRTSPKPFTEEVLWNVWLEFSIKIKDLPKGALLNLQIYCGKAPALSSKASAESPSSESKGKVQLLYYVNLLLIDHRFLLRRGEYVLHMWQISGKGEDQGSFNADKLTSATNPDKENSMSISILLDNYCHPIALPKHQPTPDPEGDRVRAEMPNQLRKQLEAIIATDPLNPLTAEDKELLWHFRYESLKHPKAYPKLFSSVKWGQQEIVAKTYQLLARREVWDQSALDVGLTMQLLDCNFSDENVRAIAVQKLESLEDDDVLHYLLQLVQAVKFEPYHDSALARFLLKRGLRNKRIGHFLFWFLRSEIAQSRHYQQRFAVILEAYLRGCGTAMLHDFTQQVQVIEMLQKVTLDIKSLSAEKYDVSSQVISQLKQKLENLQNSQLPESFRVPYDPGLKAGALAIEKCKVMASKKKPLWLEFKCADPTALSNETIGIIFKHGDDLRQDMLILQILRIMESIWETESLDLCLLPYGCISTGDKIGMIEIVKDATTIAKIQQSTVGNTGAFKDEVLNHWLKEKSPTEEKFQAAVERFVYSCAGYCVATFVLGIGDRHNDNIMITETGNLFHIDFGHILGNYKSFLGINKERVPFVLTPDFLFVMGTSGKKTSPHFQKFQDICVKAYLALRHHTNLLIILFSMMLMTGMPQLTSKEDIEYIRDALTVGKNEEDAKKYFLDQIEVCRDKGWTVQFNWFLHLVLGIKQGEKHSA
For a further assay, the target named is mTOR (Homo sapiens (Human), UniProt P42345). The assay can be described thus: mTOR biochemical potency assay (Assay d).
In another assay the target is PIK3Cβ (p110β) (Homo sapiens (Human), UniProt P42338). The assay can be described thus: PI3K biochemical potency assay (Assay c), PIK3Cβ.
The mark [3] stands for this setting: MCF7, read-out: Etoposide MCF-7 cellular IC50.
The mark [4] stands for this setting: total IR 30 Gy (3 cycles), 50 mg/kg PO. TID.
Setting [5] is: total IR 30 Gy (3 cycles), 150 mg/kg PO. TID.
Where [6] appears, read: MCF7, MCF-7 cells, etoposide, read-out: Etoposide MCF-7 cellular IC50.
[7] abbreviates: HT-29 cells, SN-38, read-out: SN-38 HT-29 cellular IC50.

Read-outs that look alike come from different tables or passages of the source. Where only a bound is given, the exact number is not on record here.

As a reminder, the IC50 is the concentration needed to halve the response being measured.

Experimental for PI3Kα (p110α/p85a): Assay c): PI3K Biochemical Potency
(§1) 2.5 μl of kinase solution was added to each well of the 384-well assay plate, which contains 2.5 μl of compounds with serially diluted concentration. 2× substrate solution was prepared with PIP2 substrate and ATP in 1× kinase reaction buffer at 2-fold of the final concentration of each reagent in the assay. 5 μl of substrate solution was added to each well of the assay plate to start reaction. The assay plate was incubated at room temperature for 1 hour. 5 μl reaction mix was transferred to a new 384 well plate. 5 μl of ADP-Glo reagent (Promega, Cat. No. v9102/3) was added to each well of the new assay plate to stop the reaction. The plate was shaken slowly and equilibrated for 40 minutes. 10 μl kinase detection reagents were added to each well, which was equilibrated for 60 minutes before read on a plate reader (Envision) for luminescence.
Experimental for PIK3Cβ (p110β): Assay c): PI3K Biochemical Potency
as §1
Experimental for PIK3Cγ (pp110γ): Assay c): PI3K Biochemical Potency
as §1
Experimental for PIK3Cδ: Assay c): PI3K Biochemical Potency
as §1
Experimental for mTOR: Assay d): mTOR Biochemical Potency
Solution of mTOR enzymes (Millipore, Cat. No. 14-770) was prepared in 1× kinase buffer at 4-fold of the final concentration (final concentration: 6 nM) in the assay. 2.5 μl of kinase solution was added to each well of the 384-well assay plate, which contains 2.5 μl of compounds with serially diluted concentration. 2× substrate solution was prepared with ULight-4E-BP1 (Thr37/46) Peptide (PE, Cat. No. TRF0128-M) and ATP in 1× kinase reaction buffer at 2-fold of the final concentration of each reagent in the assay. 5 μl of substrate solution was added to each well of the assay plate to start reaction. The assay plate was incubated at room temperature for 30 minutes. Detection solution of kinase quench buffer (EDTA) and Eu-anti-phospho-4E-BP1 antibody (Thr37/46) (PE, Cat. No. TRF0216-M) were prepared at 2-fold the desired final concentrations of each reagent in Lance detection buffer. 10 μl of detection solution buffer was added to each well of the assay plate.

Take `CC(C)n1c(=O)n(C)c2nnc3ccc(-c4ccc(COCCN5CC6CC6C5)nc4)cc3c21` (centres unmarked) [Example 1, 8-(6-((2-(3-azabicyclo[3.1.0]hexan-3-yl)ethoxy)methyl)pyridin-3-yl)-1-isopropyl-3-methyl-1H-imidazo[4,5-c]cinnolin-2(3H)-one]: the IC50 is 0.04 µM in assay [1] (setting [3]) and 0.016 µM on ATM. Further, the “Inhibition (% TGI) Combo” value in the assay on FaDu xenograft (setting [4]) came out at 76.8 ± 2.72 % TGI; in the assay on FaDu xenograft (setting [5]), 92.0 ± 1.31 % TGI.
In the case of `CC(C)n1c(=O)n(C)c2nnc3ccc(-c4ccc(COCCN5CCC(F)CC5)nc4)cc3c21` [Example 5, 8-(6-((2-(4-fluropiperidin-1-yl)ethoxy)methyl)pyridin-3-yl)-1-isopropyl-3-methyl-1H-imidazo[4,5-c]cinnolin-2(3H)-one], the IC50 in [1] (setting [6]) was determined as 0.027 µM; at ATM, 0.014 µM; in [2] (setting [7]), 0.13 µM. Further, the “Inhibition (% TGI) Combo” value amounted to 79.6 ± 2.78 % TGI with FaDu xenograft (setting [4]) and 91.9 ± 1.16 % TGI in the assay on FaDu xenograft (setting [5]).
Regarding `CC(C)n1c(=O)n(C)c2nnc3ccc(-c4ccc([C@@H](C)OCCN5CCC6(CC6)C5)nc4)cc3c21` [Example 53, (R)-8-(6-(1-(2-(5-azaspiro[2.4]heptan-5-yl)ethoxy)ethyl)pyridin-3-yl)-1-isopropyl-3-methyl-1H-imidazo[4,5-c]cinnolin-2(3H)-one], the IC50 in assay [1] (setting [6]) is 0.009 µM; at PI3Kα (p110α/p85a) it was more than 10 µM; at PIK3Cδ, more than 10 µM; against ATR it was more than 10 µM; on ATM, 0.0042 µM; against PIK3Cγ (pp110γ) it was more than 10 µM. For the same compound, the IC50 in assay [2] (setting [7]) was 0.011 µM; on mTOR, more than 10 µM; against PIK3Cβ (p110β), more than 10 µM.
On to `CO[C@@H]1CCN(CCO[C@H](C)c2ccc(-c3ccc4nnc5c(c4c3)n(C(C)C)c(=O)n5C)cn2)C1` [Example 57, 1-isopropyl-8-(6-((R)-1-(2-((R)-3-methoxypyrrolidin-1-yl)ethoxy)ethyl)pyridin-3-yl)-3-methyl-1H-imidazo[4,5-c]cinnolin-2(3H)-one], for which the IC50 in [1] (setting [6]) turned out to be 0.02 µM; at ATM it was 0.0042 µM; in assay [2] (setting [7]) it was 0.019 µM.
For `CC(C)n1c(=O)n(C)c2nnc3ccc(-c4ccc([C@@H](C)OCCN5CCCC5)nc4)cc3c21` [Example 62, (R)-1-isopropyl-3-methyl-8-(6-(1-(2-(pyrrolidin-1-yl)ethoxy)ethyl)pyridin-3-yl)-1,3-dihydro-2H-imidazo[4,5-c]cinnolin-2-one], the IC50 was more than 10 µM at ATR, 0.0078 µM on ATM, 0.021 µM in assay [2] and more than 10 µM at mTOR (read-out: mTor IC50). The “tumor response in FaDu xenograft efficacy study” value with FaDu xenograft was “tumor xenograft regression was observed and tumors did not relapse until the end of the study”. Further, the “Inhibition (% TGI) Combo” value in the assay on FaDu xenograft (total IR 30 Gy (3 cycles), 45 mg/kg PO. BID) is listed as 98.7 ± 0.51 % TGI; in the assay on FaDu xenograft (total IR 60 Gy (6 cycles), 10 mg/kg PO. BID), 80.4 ± 2.20 % TGI; with FaDu xenograft (total IR 60 Gy (6 cycles), 30 mg/kg PO. BID) it was 93.6 ± 1.33 % TGI.
With `CC(C)n1c(=O)n(C)c2nnc3ccc(-c4ccc([C@@H](C)OCCN5CCC(F)CC5)nc4)cc3c21` [Example 69, (R)-8-(6-(1-(2-(4-fluoropiperidin-1-yl)ethoxy)ethyl)pyridin-3-yl)-1-isopropyl-3-methyl-1H-imidazo[4,5-c]cinnolin-2(3H)-one], the values for the IC50 (in assay [1] (setting [6]); on ATM; in [2] (setting [7])) were 0.034 µM, 0.0052 µM and 0.047 µM, respectively.
Take `CC(C)n1c(=O)n(C)c2nnc3ccc(-c4ccc([C@@H](C)OCCN5CCC(C)(C)CC5)nc4)cc3c21` [Example 73, (R)-8-(6-(1-(2-(4,4-dimethylpiperidin-1-yl)ethoxy)ethyl)pyridin-3-yl)-1-isopropyl-3-methyl-1H-imidazo[4,5-c]cinnolin-2(3H)-one]: the half-maximal inhibitory concentration (IC50) in assay [1] (setting [3]) was determined as 0.0091 µM; at ATM, 0.0035 µM; in assay [2] (setting [7]) it was 0.0091 µM.
Regarding `C[C@@H](OCCN1CCC2(CC2)C1)c1ccc(-c2ccc3nnc4c(c3c2)n(C2CCOCC2)c(=O)n4C)cn1` [Example 102, (R)-8-(6-(1-(2-(5-azaspiro[2.4]heptan-5-yl)ethoxy)ethyl)pyridin-3-yl)-3-methyl-1-(tetrahydro-2H-pyran-4-yl)-1H-imidazo[4,5-c]cinnolin-2(3H)-one], the concentration for half-maximal inhibition (IC50) on PI3Kα (p110α/p85a), on PIK3Cδ, against ATR, against PIK3Cγ (pp110γ), against mTOR and on PIK3Cβ (p110β) was more than 10 µM each time. In addition, the “tumor response in FaDu xenograft efficacy study” value in the assay with FaDu xenograft was “tumor xenograft regression was observed and tumors did not relapse until the end of the study”.
For `C[C@@H](OCCN1CCC2(CC1)CC2)c1ccc(-c2ccc3nnc4c(c3c2)n(C2CCOCC2)c(=O)n4C)cn1` [Example 107, (R)-8-(6-(1-(2-(6-azaspiro[2.5]octan-6-yl)ethoxy)ethyl)pyridin-3-yl)-3-methyl-1-(tetrahydro-2H-pyran-4-yl)-1H-imidazo[4,5-c]cinnolin-2(3H)-one], the IC50 is 0.012 µM in [1] (setting [3]), more than 10 µM at ATR and more than 10 µM at mTOR (read-out: mTor IC50).
For `CO[C@@H]1CCN(CCO[C@H](C)c2ccc(-c3ccc4nnc5c(c4c3)n(C3CCOCC3)c(=O)n5C)cn2)C1` [Example 112, 8-(6-((R)-1-(2-((R)-3-methoxypyrrolidin-1-yl)ethoxy)ethyl)pyridin-3-yl)-3-methyl-1-(tetrahydro-2H-pyran-4-yl)-1H-imidazo[4,5-c]cinnolin-2(3H)-one], the IC50 in assay [1] (setting [6]) is 0.02 µM; against ATR, more than 10 µM; on ATM, 0.0078 µM; in assay [2], 0.018 µM; on mTOR (read-out: mTor IC50), more than 10 µM. Further, the “Inhibition (% TGI) Combo” value came to 77.3 ± 1.67 % TGI with FaDu xenograft (total IR 40 Gy (4 cycles), 30 mg/kg PO. BID); 79.6 ± 4.20 % TGI with FaDu xenograft (total IR 40 Gy (4 cycles), 60 mg/kg PO. BID); 82.9 ± 1.77 % TGI in the assay with FaDu xenograft (total IR 40 Gy (4 cycles), 100 mg/kg PO. BID).
For `CO[C@H]1C[C@@H](n2c(=O)n(C)c3nnc4ccc(-c5ccc(COCCN6CC7CC7C6)nc5)cc4c32)C1` (stereo partly drawn) [Example 175, 8-(6-((2-(3-azabicyclo[3.1.0]hexan-3-yl)ethoxy)methyl)pyridin-3-yl)-1-(cis-3-methoxycyclobutyl)-3-methyl-1H-imidazo[4,5-c]cinnolin-2(3H)-one], the results for the IC50 (in assay [1] (setting [6]); at ATM; in assay [2] (setting [7])) were 0.033 µM, 0.025 µM and 0.17 µM, respectively.

For the origin of these results see patent US20240207263A1, “SELECTIVE MODULATORS OF ATAXIA TELA[…] (ATM) KINASE AND USES THEREOF” (priority 2021, published 2024).
